Where two headings read alike, the source gives them in different places.
What was measured:
[1] = coadministration together with CsA; ref [16], [34], [35]; cited from earlier work
[2] = target: T1, OATP-1B1 (Homo sapiens, UniProt Q9Y6L6); conditions: for Inhibition of cellular accumulation of [3H]ES (in words) / Diminished uptake of [3H]ES: 25 and 50 μM; for Diminished uptake of [3H]ES: p < 0.05
T1 sequence (Q9Y6L6 1-691): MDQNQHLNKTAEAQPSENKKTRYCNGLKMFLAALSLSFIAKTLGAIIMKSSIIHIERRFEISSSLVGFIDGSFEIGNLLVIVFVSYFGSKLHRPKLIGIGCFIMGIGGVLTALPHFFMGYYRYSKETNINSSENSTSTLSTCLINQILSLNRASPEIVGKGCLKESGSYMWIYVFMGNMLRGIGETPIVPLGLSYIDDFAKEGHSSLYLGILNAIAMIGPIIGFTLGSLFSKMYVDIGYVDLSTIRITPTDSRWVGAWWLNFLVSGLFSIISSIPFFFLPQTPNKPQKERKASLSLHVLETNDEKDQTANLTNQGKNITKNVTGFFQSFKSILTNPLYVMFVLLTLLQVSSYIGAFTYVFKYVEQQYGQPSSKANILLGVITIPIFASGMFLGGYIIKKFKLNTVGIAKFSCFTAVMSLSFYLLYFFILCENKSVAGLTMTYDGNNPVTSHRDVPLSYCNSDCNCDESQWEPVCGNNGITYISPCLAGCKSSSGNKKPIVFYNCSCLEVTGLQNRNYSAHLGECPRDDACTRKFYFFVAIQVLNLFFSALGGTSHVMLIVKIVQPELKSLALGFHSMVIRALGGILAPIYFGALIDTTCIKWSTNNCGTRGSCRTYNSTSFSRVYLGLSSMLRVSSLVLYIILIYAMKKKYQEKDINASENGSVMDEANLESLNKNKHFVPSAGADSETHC

[3] = target: T2, OATP-1B3 (Homo sapiens, UniProt Q9NPD5); experiment: Inhibition of [3H]CCK-8 cellular accumulation in OATP-1B3 transfected CHO cells; assay type: cell-based; conditions: for Inhibition of cellular accumulation of [3H]CCK-8 (in words): 25 and 50 μM, OATP-1B3 transfected cells; for Inhibition in net uptake rate of [3H]CCK-8 in OATP-1B3 cells (in words): increasing concentrations 0.1-100 μM
T2 sequence (Q9NPD5 1-702): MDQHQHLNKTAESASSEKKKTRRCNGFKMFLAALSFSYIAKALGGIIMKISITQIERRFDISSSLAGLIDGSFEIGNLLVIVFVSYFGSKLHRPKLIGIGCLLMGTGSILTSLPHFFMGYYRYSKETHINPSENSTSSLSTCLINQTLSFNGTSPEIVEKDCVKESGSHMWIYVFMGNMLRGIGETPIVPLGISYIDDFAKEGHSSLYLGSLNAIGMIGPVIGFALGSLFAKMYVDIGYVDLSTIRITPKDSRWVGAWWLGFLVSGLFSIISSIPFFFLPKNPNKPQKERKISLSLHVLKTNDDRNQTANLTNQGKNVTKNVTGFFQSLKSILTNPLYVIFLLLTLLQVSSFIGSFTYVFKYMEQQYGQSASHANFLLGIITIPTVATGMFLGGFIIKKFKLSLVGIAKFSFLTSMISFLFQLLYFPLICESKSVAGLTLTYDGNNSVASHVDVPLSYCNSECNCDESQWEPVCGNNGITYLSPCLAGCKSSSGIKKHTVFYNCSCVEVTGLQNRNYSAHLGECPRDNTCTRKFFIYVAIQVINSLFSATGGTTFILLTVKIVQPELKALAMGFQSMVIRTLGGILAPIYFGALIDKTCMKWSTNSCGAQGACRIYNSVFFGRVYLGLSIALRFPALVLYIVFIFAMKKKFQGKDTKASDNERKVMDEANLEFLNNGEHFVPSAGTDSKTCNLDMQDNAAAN

[4] = system: OATP-1B1 transfected CHO cells
[5] = system: OATP-1B3 transfected CHO cells; assay type: cell-based, Chinese hamster
[6] = system: OATP-1B1; conditions: 10 μM, Flp-In T-Rex293 cells expressing OATP-1B1; ref Hu et al. [24]; cited from earlier work
[7] = coadministration of pazopanib; ref Tan et al. [41]; cited from earlier work
[8] = 100 μM, 24 h, OATP-1B1 transfected cells, relative to positive control Triton X
[9] = 100 μM, 24 h, OATP-1B3 transfected cells, relative to positive control Triton X

Compound	Inhibition of cellular accumulation of [3H]CCK-8 (in words) [3]	Inhibition in net uptake rate of [3H]CCK-8 in OATP-1B3 cells (in words) [3]	Inhibition of cellular accumulation of [3H]ES (in words) ([2]; OATP-1B1 transfected cells)	Cytotoxic effect [4, 8]	Cytotoxic effect [5, 9]	Inhibition of OATP-1B1 (in words) [6]	other results
CC[C@H](C)C(=O)O[C@H]1C[C@H](O)C=C2C=C[C@H](C)[C@H](CC[C@@H](O)C[C@@H](O)CC(=O)O)[C@H]21 [pravastatin]	–	–	–	–	–	–	Increased AUC of statin [1]: 9.93 fold
Cc1cn(-c2cc(NC(=O)c3ccc(C)c(Nc4nccc(-c5cccnc5)n4)c3)cc(C(F)(F)F)c2)cn1 [Nilotinib, nilotinib]	did not show any significant effect	no significant inhibition	significant inhibition	No cytotoxic effects	No cytotoxic effects	inhibitory potency	Diminished uptake of [3H]ES ([2]; OATP-1B1 transfected cells): ~90%
C#Cc1cccc(Nc2ncnc3cc(OCCOC)c(OCCOC)cc23)c1 [Erlotinib, erlotinib]	did not show any significant effect	no significant inhibition	did not show any significant inhibitory activity	No cytotoxic effects	No cytotoxic effects	inhibitory activity	–
CC(=O)O[C@H]1C(=O)[C@@]2(C)[C@H]([C@H](OC(=O)c3ccccc3)[C@]3(O)C[C@H](OC(=O)[C@H](O)[C@@H](NC(=O)c4ccccc4)c4ccccc4)C(C)=C1C3(C)C)[C@]1(OC(C)=O)CO[C@@H]1C[C@@H]2O [paclitaxel]	–	–	–	–	–	–	Lower paclitaxel clearance [7]: 14%
CO[C@H]1/C=C/O[C@@]2(C)Oc3c(C)c(O)c4c(O)c(c(/C=N/N5CCN(C)CC5)c(O)c4c3C2=O)NC(=O)/C(C)=C\C=C\[C@H](C)[C@H](O)[C@@H](C)[C@@H](O)[C@@H](C)[C@H](OC(C)=O)[C@@H]1C [Rifampicin]	–	–	–	–	–	–	IC50 [2]: 10.5 ± 1.15 µM; Reduced uptake of [3H]ES ([2]; 50 μM, OATP-1B1 transfected cells): 70%; IC50 [3]: 3.67 ± 1.2 µM
CC(C)c1nc(N(C)S(C)(=O)=O)nc(-c2ccc(F)cc2)c1/C=C/[C@@H](O)C[C@@H](O)CC(=O)O [rosuvastatin]	–	–	–	–	–	–	Increased AUC of statin [1]: 7.08 fold

Continued, in another order:

Inhibition of cellular accumulation of [3H]CCK-8 (in words) [3]	Inhibition in net uptake rate of [3H]CCK-8 in OATP-1B3 cells (in words) [3]	Compound	Inhibition of cellular accumulation of [3H]ES (in words) ([2]; OATP-1B1 transfected cells)	Cytotoxic effect [4, 8]	Cytotoxic effect [5, 9]	Inhibition of OATP-1B1 (in words) [6]	other results
did not show any significant effect	no significant inhibition	C=CC(=O)Nc1cc2c(Nc3ccc(F)c(Cl)c3)ncnc2cc1OCCCN1CCOCC1 [Canertinib, canertinib]	did not show any significant inhibitory activity	No cytotoxic effects	No cytotoxic effects	–	–
did not show any significant effect	no significant inhibition	Cc1ccc(Nc2nccc(N(C)c3ccc4c(C)n(C)nc4c3)n2)cc1S(N)(=O)=O [Pazopanib]	significant inhibition	–	–	inhibitory potency	IC50 [2]: 3.89 ± 1.21 µM; Diminished uptake of [3H]ES ([2]; OATP-1B1 transfected cells): ~90%; Cytotoxic effect [4]: No cytotoxic effects; Cytotoxic effect [5]: No cytotoxic effects
significant inhibition	–	COc1cc2c(Nc3ccc(Br)cc3F)ncnc2cc1OCC1CCN(C)CC1 [Vandetanib, vandetanib]	did not show any significant inhibitory activity	–	–	inhibitory activity	IC50 [3]: 18.1 ± 1.21 µM; Cytotoxic effect [4]: No cytotoxic effects; Cytotoxic effect [5]: No cytotoxic effects

— article PMC4407688 (Drug metabolism and drug interactions, 2014)
